Experimental findings from ChEMBL document CHEMBL1136909, “Discovery of a novel HCV helicase inhibitor by a de novo drug design approach” (Bioorg Med Chem Lett, 2009) are described below.

In brackets after ≈: the same amount, converted by molar mass. Activity calls are given as the source filed them. No cut-off for these calls is given here.

For one data set, the system named is Hepacivirus hominis. As to the kind of experiment: Inhibition of HCV recombinant NS3 helicase at 100 uM.
In another data set the test system is Hepatitis C virus. The data set is described as follows: Antiviral activity against HCV in human Huh5-2 cells assessed as inhibition of HCV subgenomic replication. It counts as functional, organism-based, Hepacivirus hominis. The settings on record: Huh-5-2.
Data set [1] in a line: Cytotoxicity against human Huh5-2 cells by MTS assay. It counts as cell-based, Huh-5-2.
The nature of data set [2]: Inhibition of HCV recombinant NS3 helicase. The arrangement: species or system Hepacivirus hominis.

`COC(=O)c1ccc(CNC(=O)c2cc(/C=C/C(C)=O)c[nH]2)cc1`: the outcome with Hepacivirus hominis was inactive.

Turning to `COC(=O)c1ccc(CNC(=O)c2ccc(/C=C/C(C)=O)[nH]2)cc1`, the concentration for a half-maximal effect (EC50) in the data set with Hepatitis C virus worked out at 3 µg/mL (≈ 9.19 µM). For the same molecule, the CC50 in data set [1] was found to be 10 µg/mL (≈ 30.6 µM). For the same molecule, the IC50 in data set [2] is 260 nM.
